Common to all, as to type: functional
Test [1] relates to Mycobacterium tuberculosis variant bovis. Description: Antibacterial activity against Mycobacterium bovis BCG incubated for 1 week in 7H9/ADC/Tw medium in presence of 0.1 mM chorismate.
Test [2] shares this test system. The test is described as follows: Antibacterial activity against Mycobacterium bovis BCG incubated for 1 week in 7H9/ADC/Tw medium in presence of 0.1 mM anthranilate.
Test [3] shares this test system. The test is described as follows: Antibacterial activity against Mycobacterium bovis BCG incubated for 1 week in 7H9/ADC/Tw medium in presence of 0.1 mM indole.
Test [4] has the same test system. The test is described as follows: Antibacterial activity against Mycobacterium bovis BCG incubated for 1 week in 7H9/ADC/Tw medium.
The test system is the same in test [5]. The test is described as follows: Antibacterial activity against Mycobacterium bovis BCG incubated for 1 week in 7H9/ADC/Tw medium in presence of 0.1 mM Trp.
The test system is the same in test [6]. Description: Antibacterial activity against Mycobacterium bovis BCG incubated for 1 week in 7H9/ADC/Tw medium in presence of 0.5 mM chorismate.
[7] abbreviates: Mycobacterium tuberculosis variant bovis, BCG, 168 h, read-out: MIC.

SMILES strings stand for the structures. Converted amounts (≈) assume the structure as drawn. Some results are limits rather than exact numbers.

A word on the MIC: it is the smallest concentration in the dilution series that meets the test's criterion for growth inhibition. With `Nc1cccc(F)c1C(=O)O`, the minimal inhibitory concentration (MIC) was 6.4 µM in test [1] (setting [7]); more than 50 µM in test [2] (setting [7]); more than 50 µM in test [3] (setting [7]); 6.4 µM (≈ 0.993 µg/mL) in test [4] (setting [7]); more than 50 µM in test [5] (setting [7]); 6.4 µM in test [6] (setting [7]).

On to `Nc1cccc(F)c1C(=O)NNc1ccccc1`, for which the MIC was 8.15 µM in test [1] (setting [7]); more than 50 µM in test [2] (setting [7]); more than 50 µM in test [3] (setting [7]); 2 µM (≈ 0.491 µg/mL) in test [4] (setting [7]); more than 50 µM in test [5] (setting [7]); 8.15 µM in test [6] (setting [7]).

Take `Cl.Nc1cccc(F)c1C(=O)NNc1ccccc1`: the minimal inhibitory concentration (MIC) in test [1] is 7.1 µM; in test [2], more than 50 µM; in test [3] it was more than 50 µM; in test [4] it was 3.5 µM; in test [5], more than 50 µM; in test [6] it was 14.2 µM.

As to `Nc1cccc(F)c1C(=O)NNc1c(Cl)cc(Cl)cc1Cl`, the MIC was 45.9 µM in test [1] (setting [7]); more than 50 µM in test [2] (setting [7]); more than 50 µM in test [3] (setting [7]); 22.9 µM (≈ 7.98 µg/mL) in test [4] (setting [7]); more than 50 µM in test [5] (setting [7]); 45.9 µM in test [6] (setting [7]).

The values are drawn from ChEMBL document CHEMBL5214915 (Eur J Med Chem, 2021).
